Results reported in patent US8361968B2 (Takeda Pharmaceutical Company Limited, priority 2002, dated 2013).
Where two headings read alike, the source gives them in different places. Numbered stars: 1 amine (or outer) side, 2 acyl side, 3 side chain; on linkers, the order of the positions; unused ones are H or OH. Square brackets hold non-standard residues; d marks the D form. Peptide text beside a SMILES is read from it. X11 = O=C(CNC(=S)[C@H](Cc1ccccc1)N[*:1])[*:2]; Arg(Me) = CNC(=N)NCCC[C@H](N)C(=O)O; 4Pal = N[C@@H](Cc1ccncc1)C(=O)O; Cha = N[C@@H](CC1CCCCC1)C(=O)O; azaGly = NNC(=O)O

Assays:
[1] = test system: hOT7T175-expressed CHO cells; type: cell-based
Procedure: Assay for Cell Growth Inhibition Activity in hOT7T175-Expressed Cho Cells hOT7T175-Expressed CHO cells (hereinafter hOT7T175) were cultured in DMEM supplemented with 10% dialyzed FBS (hereinafter 10% dFBS/DMEM), which was used for the following assay. The hOT7T175 was suspended in 10% dFBS/DMEM at 10,000 cells/ml. The cells were plated on a 96 well plate at 100 μL each/well (1,000 cells/well), followed by culturing overnight at 37° C. in a 5% CO2 incubator. On the following day, the medium was removed and 90 μL of 10% dFBS/DMEM supplemented with 0.5% BSA (hereinafter, 0.5% BSA/10% dFBS/DMEM) was added. […] After 10 μL of Cell Counting Kit-8 solution (Dojin Chemical Laboratory) was added to each well, incubation was performed at 37° C. in a 5% CO2 incubator for 4 hours and absorbance was measured at 450 nm.

hOT7T175 [2] = target: T1, hOT7T175 (Homo sapiens, UniProt Q969F8, L364H); assay: Intracellular Ca ion level-increasing activity using FLIPR in hOT7T175/CHO; type: cell-based; set-up: expressed in transfected cells; host or cells: CHO/dhfr- cells, obtained from ATCC; conditions: relative, Metastin (1-54) = 1
T1 sequence (Q969F8 whole entry L364H): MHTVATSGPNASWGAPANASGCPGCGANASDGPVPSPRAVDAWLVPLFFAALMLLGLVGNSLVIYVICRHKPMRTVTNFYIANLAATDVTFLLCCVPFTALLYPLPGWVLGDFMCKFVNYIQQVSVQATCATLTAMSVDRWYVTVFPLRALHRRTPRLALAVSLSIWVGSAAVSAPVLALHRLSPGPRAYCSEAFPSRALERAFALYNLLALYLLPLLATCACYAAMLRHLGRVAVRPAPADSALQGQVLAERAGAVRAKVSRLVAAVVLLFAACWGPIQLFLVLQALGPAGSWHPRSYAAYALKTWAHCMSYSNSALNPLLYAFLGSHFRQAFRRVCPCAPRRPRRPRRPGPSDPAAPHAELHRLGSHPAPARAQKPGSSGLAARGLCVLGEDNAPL

[3] = Stability of compound in blood (mouse serum, half life); conditions: female, Balb/c
Procedure: (§1) Blood was drawn from Balb/c mice (female) of 8 weeks old, settled at 37° C. for 30 minutes and centrifuged at 13000 rpm for 10 minutes to give the serum as the supernatant. The serum thus obtained was frozen-stored at −80° C.
(§2) The stability test was performed by addition of 5 nmol of Compound (5 μL of aqueous solution) to 45 μL of serum and then settlement of the mixture at 37° C. The settlement was made at 3 points of time, including 2, 10 and 30 minutes. The sample after the settlement was boiled for 3 minutes and cooled on an ice bath. After 200 μL of acetonitrile/water (3/1) was added to the sample, the mixture was ultrasonicated for 5 minutes and then centrifuged at 5000 rpm for 1 minute. After 150 μL of the supernatant was diluted with 250 μL of distilled water, insoluble matters were removed by filtration through a filter having a pore size of 0.45 μm and 200 μL of the filtrate was applied on HPLC (220 nm) to determine the peak area of Compound. A ratio of the peak area to the area when Compound was treated for 0 minute under the same conditions was calculated as a mean value in 4 respective runs to determine the residual ratio. Next, by taking the calculated residual ratio on the ordinate and the time on the abscissa, a graph was prepared and approximated by an exponential function.
(§3) The preparative HPLC used was the LC-VP series manufactured by Shimadzu Corporation and Wakosil-II 5C18 HG (4.6 mm×100 mm) manufactured by Wako Pure Chemical Industries, Ltd. was used as the column. Eluant A (0.1% TFA-containing water) and eluant B (0.1% TFA-containing acetonitrile) were used as eluants. Analysis was performed by linear density gradient elution (25 minutes) at a flow rate of 1.0 ml/min. using eluants A/B: 100/0-0/50.

in vitro = conditions: female, Balb/c, mouse, serum
Procedure: as §1, §2, §3

hOT7T175 [4] = target: T1, hOT7T175; assay: hOT7T175 receptor binding activity: binding inhibition of Cy-5-labeled metastin (40-54) on hOT7T175-expressed CHO cells; set-up: expressed in transfected cells; host or cells: CHO cells
[5] = hOT7T175-expressed CHO cells, 3 days culture, Cell Counting Kit-8, read-out: IC50 (M), cell growth inhibition activity

Row | Structure (SMILES) | Specific Activity (intracellular Ca ion level-increasing activity) (hOT7T175 [2]) | half-life at 100 µM (in vitro) [min] | further results
1 | CC(C)C[C@H](NC(=O)CNC(=O)[C@H](Cc1ccccc1)NC(=O)[C@H](CO)NC(=O)[C@H](CC(N)=O)NC(=O)[C@H](Cc1c[nH]c2ccccc12)NC(=O)[C@H](CC(N)=O)NC(=O)[C@@H](N)Cc1ccc(O)cc1)C(=O)N[C@@H](CCCNC(=N)N)C(=O)N[C@@H](Cc1ccccc1)C(N)=O [45-54] | – | – | IC50 [1, 5]: 8.51e-06 M
2 | CC(C)C[C@H](NC(=O)CNC(=O)[C@H](Cc1ccccc1)NC(=O)[C@H](CO)NC(=O)[C@H](CC(N)=O)NC(=O)[C@H](Cc1c[nH]c2ccccc12)NC(=O)[C@H](CC(N)=O)NC(=O)[C@H](N)Cc1ccc(O)cc1)C(=O)N[C@@H](CCCNC(=N)N)C(=O)N[C@@H](Cc1ccccc1)C(N)=O [Compound No. 42] | 30 | – | half-life at 100 µM [3]: 0.7 min
3 | CC[C@H](C)[C@H](NC(=O)[C@H](CCC(N)=O)NC(=O)[C@H](CCCNC(=N)N)NC(=O)[C@H](CO)NC(=O)[C@H](Cc1c[nH]cn1)NC(=O)[C@@H]1CCCN1C(=O)[C@H](C)NC(=O)[C@H](CO)NC(=O)[C@H](CC(C)C)NC(=O)CNC(=O)[C@@H]1CCCN1C(=O)[C@H](CCC(N)=O)NC(=O)[C@H](CCC(N)=O)NC(=O)[C@H](CCCNC(=N)N)NC(=O)[C@H](CO)NC(=O)CNC(=O)[C@H](CO)NC(=O)[C@H](CO)NC(=O)[C@H](CCC(=O)O)NC(=O)[C@@H]1CCCN1C(=O)[C@@H]1CCCN1C(=O)[C@@H]1CCCN1C(=O)[C@H](CO)NC(=O)[C@H](CC(C)C)NC(=O)[C@H](CO)NC(=O)[C@@H](NC(=O)CN)[C@@H](C)O)C(=O)N1CCC[C@H]1C(=O)N[C@@H](C)C(=O)N1CCC[C@H]1C(=O)N[C@@H](CCC(N)=O)C(=O)NCC(=O)N[C@@H](C)C(=O)N[C@H](C(=O)N[C@@H](CC(C)C)C(=O)N[C@H](C(=O)N[C@@H](CCC(N)=O)C(=O)N[C@@H](CCCNC(=N)N)C(=O)N[C@@H](CCC(=O)O)C(=O)N[C@@H](CCCCN)C(=O)N[C@@H](CC(=O)O)C(=O)N[C@@H](CC(C)C)C(=O)N1CCC[C@H]1C(=O)N[C@@H](CC(N)=O)C(=O)N[C@@H](Cc1ccc(O)cc1)C(=O)N[C@@H](CC(N)=O)C(=O)N[C@@H](Cc1c[nH]c2ccccc12)C(=O)N[C@@H](CC(N)=O)C(=O)N[C@@H](CO)C(=O)N[C@@H](Cc1ccccc1)C(=O)NCC(=O)N[C@@H](CC(C)C)C(=O)N[C@@H](CCCNC(=N)N)C(=O)N[C@@H](Cc1ccccc1)C(N)=O)C(C)C)C(C)C [1-54] | – | – | IC50 [1]: 2.12e-07 M
4 | CNC(=N)NCCC[C@H](NC(=O)[C@H](CC(C)C)NC(=O)CNC[C@H](Cc1ccccc1)NC(=O)[C@H](CO)NC(=O)[C@H](CC(N)=O)NC(=O)[C@H](Cc1c[nH]c2ccccc12)NC(=O)[C@H](CC(N)=O)NC(=O)[C@H](N)Cc1ccc(O)cc1)C(=O)N[C@@H](Cc1ccccc1)C(N)=O [Compound No. 308, D-Tyr-Asn-Trp-Asn-Ser-PheΨ(CH2NH)Gly-Leu-Arg(Me)-Phe-NH2] | 2 | 13.2 | –
5 | CNC(N)=NCCC[C@H](NC(=O)[C@H](CC(C)C)NC(=O)NNC(=O)[C@H](Cc1ccccc1)NC(=O)[C@H](CO)NC(=O)[C@H](CC(N)=O)NC(=O)[C@H](Cc1ccncc1)NC(=O)[C@H](CC(N)=O)NC(=O)[C@H](N)Cc1ccc(O)cc1)C(=O)N[C@@H](Cc1ccccc1)C(N)=O [Compound No. 286, D-Tyr-Asn-Pya(4)-Asn-Ser-Phe-AzaGly-Leu-Arg(Me)-Phe-NH2] (H-[dY]N[4Pal]NSF[azaGly]L[Arg(Me)]F-NH2) | – | 57.5 | IC50 (hOT7T175 [4]): 17 nM
6 | CNC(N)=NCCC[C@H](NC(=O)[C@H](CC(C)C)NC(=O)CNC(=O)[C@H](Cc1ccccc1)NC(=O)[C@H](CO)NC(=O)[C@H](CC(N)=O)NC(=O)[C@H](Cc1c[nH]c2ccccc12)NC(=O)[C@H](CC(N)=O)NC(=O)[C@@H](N)Cc1ccc(O)cc1)C(=O)N[C@@H](Cc1ccccc1)C(N)=O [Compound No. 82] | – | 1.8 | –
7 | CC(C)C[C@H](NC(=O)CNC(=O)[C@H](Cc1ccccc1)NC(=O)[C@H](CO)NC(=O)[C@H](CC(N)=O)NC(=O)[C@H](Cc1c[nH]c2ccccc12)NC(=O)[C@H](CC(N)=O)NC(=O)[C@@H](N)Cc1ccc(O)cc1)C(=O)N[C@@H](CCCNC(=N)N)C(=O)N[C@@H](Cc1c[nH]c2ccccc12)C(N)=O [Compound No. 134] (H-YNWNSFGLRW-NH2) | 30 | 2.4 | IC50 (hOT7T175 [4]): 110 nM
8 | CNC(=N)NCCC[C@H](NC(=O)[C@H](CC(C)C)NC(=O)CNC(=O)[C@H](Cc1ccccc1)NC(=O)[C@H](CO)NC(=O)[C@H](CC(N)=O)NC(=O)[C@H](Cc1c[nH]c2ccccc12)NC(=O)[C@H](CC(N)=O)NC(=O)[C@H](N)Cc1ccc(O)cc1)C(=O)N[C@@H](Cc1ccccc1)C(N)=O [Compound No. 141] | 10 | 8.7 | IC50 [1]: 8.7e-08 M
9 | CC[C@H](C)[C@H](NC(=O)[C@H](CCC(N)=O)NC(=O)[C@H](CCCNC(=N)N)NC(=O)[C@H](CO)NC(=O)[C@H](Cc1c[nH]cn1)NC(=O)[C@@H]1CCCN1C(=O)[C@H](C)NC(=O)[C@H](CO)NC(=O)[C@H](CC(C)C)NC(=O)CNC(=O)[C@@H]1CCCN1C(=O)[C@H](CCC(N)=O)NC(=O)[C@H](CCC(N)=O)NC(=O)[C@H](CCCNC(=N)N)NC(=O)[C@H](CO)NC(=O)CNC(=O)[C@H](CO)NC(=O)[C@H](CO)NC(=O)[C@H](CCC(=O)O)NC(=O)[C@@H]1CCCN1C(=O)[C@@H]1CCCN1C(=O)[C@@H]1CCCN1C(=O)[C@H](CO)NC(=O)[C@H](CC(C)C)NC(=O)[C@H](CO)NC(=O)[C@@H](NC(=O)CN)[C@@H](C)O)C(=O)N1CCC[C@H]1C(=O)N[C@@H](C)C(=O)N1CCC[C@H]1C(=O)N[C@@H](CCC(N)=O)C(=O)NCC(=O)N[C@@H](C)C(=O)N[C@H](C(=O)N[C@@H](CC(C)C)C(=O)N[C@H](C(=O)N[C@@H](CCC(N)=O)C(=O)N[C@@H](CCCNC(=N)N)C(=O)N[C@@H](CCC(=O)O)C(=O)N[C@@H](CCCCN)C(=O)N[C@@H](CC(=O)O)C(=O)N[C@@H](CC(C)C)C(=O)N1CCC[C@H]1C(=O)N[C@@H](CC(N)=O)C(=O)N[C@@H](Cc1ccc(O)cc1)C(=O)N[C@@H](CC(N)=O)C(=O)N[C@@H](Cc1c[nH]c2ccccc12)C(=O)N[C@@H](CC(N)=O)C(=O)N[C@@H](CO)C(=O)N[C@@H](Cc1ccccc1)C(=O)NCC(=O)N[C@@H](CC(C)C)C(=O)N[C@@H](CCCNC(=N)N)C(=O)N[C@@H](Cc1ccccc1)C(N)=O)C(C)C)C(C)C [Compound No. 1, Metastin, reference compound] | – | 22.5 | –
10 | CNC(N)=NCCC[C@H](NC(=O)[C@H](CC(C)C)NC(=O)CNC(=S)[C@H](Cc1ccccc1)NC(=O)[C@H](CO)NC(=O)[C@H](CC(N)=O)NC(=O)[C@H](Cc1c[nH]c2ccccc12)NC(=O)[C@H](CC(N)=O)NC(=O)[C@H](N)Cc1ccc(O)cc1)C(=O)N[C@@H](Cc1ccccc1)C(N)=O [Compound No. 296, D-Tyr-Asn-Trp-Asn-Ser-PheΨ(CSNH)Gly-Leu-Arg(Me)-Phe-NH2] (H-[dY]NWNS[X11]L[Arg(Me)]F-NH2) | – | 47.2 | –
11 | CNC(=N)NCCC[C@H](NC(=O)[C@H](CC(C)C)NC(=O)NNC(=O)[C@H](Cc1ccccc1)NC(=O)[C@H](CO)NC(=O)[C@H](CC(N)=O)NC(=O)[C@H](Cc1ccncc1)NC(=O)[C@H](CC(N)=O)NC(=O)[C@H](N)Cc1ccc(O)cc1)C(=O)N[C@@H](Cc1ccccc1)C(N)=O [Compound No. 286, D-Tyr-Asn-Pya(4)-Asn-Ser-Phe-AzaGly-Leu-Arg(Me)-Phe-NH2] (H-[dY]N[4Pal]NSF[azaGly]L[Arg(Me)]F-NH2) | 2 | – | IC50 [1, 5]: 1.83e-08 M
12 | CNC(=N)NCCC[C@H](NC(=O)[C@H](CC(C)C)NC(=O)NNC(=O)[C@H](Cc1ccccc1)NC(=O)[C@H](CO)NC(=O)[C@H](CC(N)=O)NC(=O)[C@H](Cc1c[nH]c2ccccc12)NC(=O)[C@H](CC(N)=O)NC(=O)[C@H](N)Cc1ccc(O)cc1)C(=O)N[C@@H](Cc1ccccc1)C(N)=O [Compound No. 232, D-Tyr-Asn-Trp-Asn-Ser-Phe-AzaGly-Leu-Arg(Me)-Phe-NH2] | 3 | 28.2 | IC50 [1]: 9.67e-09 M; IC50 (hOT7T175 [4]): 49 nM
13 | CNC(=N)NCCC[C@H](NC(=O)[C@H](CC(C)C)NC(=O)NNC(=O)[C@H](Cc1ccccc1)NC(=O)[C@H](CO)NC(=O)[C@H](CC(N)=O)NC(=O)[C@H](Cc1ccncc1)NC(=O)[C@@H](CC(N)=O)NC(=O)[C@H](N)Cc1ccc(O)cc1)C(=O)N[C@@H](Cc1ccccc1)C(N)=O [Compound No. 303, D-Tyr-D-Asn-Pya(4)-Asn-Ser-Phe-AzaGly-Leu-Arg(Me)-Phe-NH2] (H-[dY][dN][4Pal]NSF[azaGly]L[Arg(Me)]F-NH2) | 5 | – | IC50 [1, 5]: 4.12e-08 M
14 | CNC(=N)NCCC[C@H](NC(=O)[C@H](CC(C)C)NC(=O)CNC(=O)[C@H](CC1CCCCC1)NC(=O)[C@H](CO)NC(=O)[C@H](CC(N)=O)NC(=O)[C@H](CC1CCCCC1)NC(=O)[C@H](CC(N)=O)NC(=O)[C@H](N)Cc1ccc(O)cc1)C(=O)N[C@@H](Cc1c[nH]c2ccccc12)C(N)=O [Compound No. 182, D-Tyr-Asn-Cha-Asn-Ser-Cha-Gly-Leu-Arg(Me)-Trp-NH2] (H-[dY]N[Cha]NS[Cha]GL[Arg(Me)]W-NH2) | 5 | – | IC50 (hOT7T175 [4]): 98 nM
